Results on 4 compounds are retold here after ChEMBL document CHEMBL5465560, “Selectivity Literature for EUbOPEN Chemogenomic Library” (2024).

Experiment [1] addresses T1, cGMP-dependent protein kinase 2 (Homo sapiens) (UniProt Q13237).
T1 sequence (whole entry): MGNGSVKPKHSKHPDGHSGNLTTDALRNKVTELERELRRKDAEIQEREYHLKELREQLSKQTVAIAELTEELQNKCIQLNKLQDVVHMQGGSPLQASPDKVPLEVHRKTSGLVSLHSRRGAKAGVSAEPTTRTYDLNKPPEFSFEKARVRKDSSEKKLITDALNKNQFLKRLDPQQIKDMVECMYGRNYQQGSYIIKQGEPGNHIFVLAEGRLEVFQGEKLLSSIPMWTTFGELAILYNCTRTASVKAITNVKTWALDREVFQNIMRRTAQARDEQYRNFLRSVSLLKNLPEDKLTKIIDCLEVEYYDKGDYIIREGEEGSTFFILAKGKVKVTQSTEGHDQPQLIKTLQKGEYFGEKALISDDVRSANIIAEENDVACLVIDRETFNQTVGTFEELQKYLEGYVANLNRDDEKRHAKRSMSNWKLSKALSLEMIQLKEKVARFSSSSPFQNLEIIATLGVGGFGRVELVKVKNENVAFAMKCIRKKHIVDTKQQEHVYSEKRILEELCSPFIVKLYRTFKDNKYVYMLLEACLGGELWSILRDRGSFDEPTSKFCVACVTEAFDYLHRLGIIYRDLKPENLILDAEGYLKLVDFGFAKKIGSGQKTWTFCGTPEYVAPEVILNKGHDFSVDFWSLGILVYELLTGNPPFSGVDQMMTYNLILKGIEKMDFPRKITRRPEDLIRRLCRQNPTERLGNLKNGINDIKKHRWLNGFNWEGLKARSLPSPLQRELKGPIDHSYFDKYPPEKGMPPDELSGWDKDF
In words: Selectivity interaction (ProQinase) EUB0000171b PRKG2.

For experiment [2], the target named is T2, Tyrosine-protein kinase receptor TYRO3 (Homo sapiens) (UniProt Q06418).
T2 sequence (whole entry): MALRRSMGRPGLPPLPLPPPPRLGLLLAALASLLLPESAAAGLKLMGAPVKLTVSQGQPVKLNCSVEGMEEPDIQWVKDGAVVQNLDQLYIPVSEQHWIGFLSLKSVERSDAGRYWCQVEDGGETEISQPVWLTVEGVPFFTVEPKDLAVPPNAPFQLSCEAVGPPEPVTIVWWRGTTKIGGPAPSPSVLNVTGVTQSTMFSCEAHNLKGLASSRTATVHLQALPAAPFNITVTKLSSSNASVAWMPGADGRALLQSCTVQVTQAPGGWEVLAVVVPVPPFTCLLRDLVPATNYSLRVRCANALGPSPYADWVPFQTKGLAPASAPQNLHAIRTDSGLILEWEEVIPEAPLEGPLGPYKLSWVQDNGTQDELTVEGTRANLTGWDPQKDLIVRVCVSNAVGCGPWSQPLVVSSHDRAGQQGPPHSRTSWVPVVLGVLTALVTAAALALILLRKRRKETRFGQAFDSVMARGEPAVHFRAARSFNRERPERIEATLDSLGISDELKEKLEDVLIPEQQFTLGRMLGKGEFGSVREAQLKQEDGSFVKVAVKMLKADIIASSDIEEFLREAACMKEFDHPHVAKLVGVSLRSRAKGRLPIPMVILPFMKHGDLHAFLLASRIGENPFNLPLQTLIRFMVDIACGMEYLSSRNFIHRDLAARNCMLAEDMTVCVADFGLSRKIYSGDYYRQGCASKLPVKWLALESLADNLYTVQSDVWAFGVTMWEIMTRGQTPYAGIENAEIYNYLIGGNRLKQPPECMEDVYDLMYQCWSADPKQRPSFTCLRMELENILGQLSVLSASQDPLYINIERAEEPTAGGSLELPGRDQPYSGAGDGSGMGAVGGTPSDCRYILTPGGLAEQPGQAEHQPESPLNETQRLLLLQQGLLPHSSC
Kind of experiment: Selectivity interaction (Ambit KINOMEscan and KiNATiv profiling in Jurkat cells) EUB0000090b TYRO3. The experiment is classed as cell-based. To be noted: at 1 µM.

The target in experiment [3] is T3, Cyclin-G-associated kinase (Homo sapiens) (UniProt O14976).
T3 sequence (whole entry): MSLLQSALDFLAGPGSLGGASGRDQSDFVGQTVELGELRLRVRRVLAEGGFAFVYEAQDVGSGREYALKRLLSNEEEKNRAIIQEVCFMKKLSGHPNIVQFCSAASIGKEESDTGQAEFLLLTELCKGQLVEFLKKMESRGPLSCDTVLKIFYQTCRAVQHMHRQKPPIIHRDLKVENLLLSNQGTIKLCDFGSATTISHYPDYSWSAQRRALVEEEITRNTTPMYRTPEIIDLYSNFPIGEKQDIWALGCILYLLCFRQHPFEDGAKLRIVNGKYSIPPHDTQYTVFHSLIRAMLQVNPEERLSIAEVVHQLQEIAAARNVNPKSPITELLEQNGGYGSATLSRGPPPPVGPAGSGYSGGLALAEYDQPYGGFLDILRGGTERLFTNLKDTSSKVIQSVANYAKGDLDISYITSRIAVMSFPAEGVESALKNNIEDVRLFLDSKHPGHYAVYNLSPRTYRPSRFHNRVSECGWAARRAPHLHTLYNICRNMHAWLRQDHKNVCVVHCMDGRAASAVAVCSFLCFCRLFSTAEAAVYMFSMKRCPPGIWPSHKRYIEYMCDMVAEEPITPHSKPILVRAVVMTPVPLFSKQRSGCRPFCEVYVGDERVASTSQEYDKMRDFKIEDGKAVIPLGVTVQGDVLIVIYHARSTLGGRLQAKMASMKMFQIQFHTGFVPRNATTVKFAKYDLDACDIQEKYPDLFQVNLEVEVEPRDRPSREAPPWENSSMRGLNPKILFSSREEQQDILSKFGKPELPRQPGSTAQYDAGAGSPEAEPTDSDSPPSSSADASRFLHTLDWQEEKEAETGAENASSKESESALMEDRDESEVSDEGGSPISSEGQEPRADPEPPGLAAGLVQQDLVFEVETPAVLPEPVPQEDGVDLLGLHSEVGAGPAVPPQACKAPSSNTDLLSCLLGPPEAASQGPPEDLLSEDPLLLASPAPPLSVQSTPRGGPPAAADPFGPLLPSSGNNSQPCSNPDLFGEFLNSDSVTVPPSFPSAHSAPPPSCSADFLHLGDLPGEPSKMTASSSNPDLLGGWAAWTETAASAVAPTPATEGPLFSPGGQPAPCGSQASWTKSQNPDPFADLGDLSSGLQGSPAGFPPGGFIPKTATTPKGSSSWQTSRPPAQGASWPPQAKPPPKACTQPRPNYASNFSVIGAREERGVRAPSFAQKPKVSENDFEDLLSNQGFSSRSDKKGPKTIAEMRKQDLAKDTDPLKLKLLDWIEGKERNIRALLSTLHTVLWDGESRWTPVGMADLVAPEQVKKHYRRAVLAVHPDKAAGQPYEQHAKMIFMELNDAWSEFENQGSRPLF
In words: Selectivity interaction (KinomeScan (DiscoverX)) EUB0001079a GAK. Conditions: at 1 µM.

Experiment [4] has as its target Vascular endothelial growth factor receptor 2 (Homo sapiens, UniProt P35968). Kind of experiment: Selectivity interaction (CEREP Wide Ligand Profile screen (panel of receptors, ion channels, and transporters)) EUB0001542aTs KDR.

SMILES strings stand for the structures.

Vascular endothelial growth factor receptor 2, sequence (P35968 whole entry): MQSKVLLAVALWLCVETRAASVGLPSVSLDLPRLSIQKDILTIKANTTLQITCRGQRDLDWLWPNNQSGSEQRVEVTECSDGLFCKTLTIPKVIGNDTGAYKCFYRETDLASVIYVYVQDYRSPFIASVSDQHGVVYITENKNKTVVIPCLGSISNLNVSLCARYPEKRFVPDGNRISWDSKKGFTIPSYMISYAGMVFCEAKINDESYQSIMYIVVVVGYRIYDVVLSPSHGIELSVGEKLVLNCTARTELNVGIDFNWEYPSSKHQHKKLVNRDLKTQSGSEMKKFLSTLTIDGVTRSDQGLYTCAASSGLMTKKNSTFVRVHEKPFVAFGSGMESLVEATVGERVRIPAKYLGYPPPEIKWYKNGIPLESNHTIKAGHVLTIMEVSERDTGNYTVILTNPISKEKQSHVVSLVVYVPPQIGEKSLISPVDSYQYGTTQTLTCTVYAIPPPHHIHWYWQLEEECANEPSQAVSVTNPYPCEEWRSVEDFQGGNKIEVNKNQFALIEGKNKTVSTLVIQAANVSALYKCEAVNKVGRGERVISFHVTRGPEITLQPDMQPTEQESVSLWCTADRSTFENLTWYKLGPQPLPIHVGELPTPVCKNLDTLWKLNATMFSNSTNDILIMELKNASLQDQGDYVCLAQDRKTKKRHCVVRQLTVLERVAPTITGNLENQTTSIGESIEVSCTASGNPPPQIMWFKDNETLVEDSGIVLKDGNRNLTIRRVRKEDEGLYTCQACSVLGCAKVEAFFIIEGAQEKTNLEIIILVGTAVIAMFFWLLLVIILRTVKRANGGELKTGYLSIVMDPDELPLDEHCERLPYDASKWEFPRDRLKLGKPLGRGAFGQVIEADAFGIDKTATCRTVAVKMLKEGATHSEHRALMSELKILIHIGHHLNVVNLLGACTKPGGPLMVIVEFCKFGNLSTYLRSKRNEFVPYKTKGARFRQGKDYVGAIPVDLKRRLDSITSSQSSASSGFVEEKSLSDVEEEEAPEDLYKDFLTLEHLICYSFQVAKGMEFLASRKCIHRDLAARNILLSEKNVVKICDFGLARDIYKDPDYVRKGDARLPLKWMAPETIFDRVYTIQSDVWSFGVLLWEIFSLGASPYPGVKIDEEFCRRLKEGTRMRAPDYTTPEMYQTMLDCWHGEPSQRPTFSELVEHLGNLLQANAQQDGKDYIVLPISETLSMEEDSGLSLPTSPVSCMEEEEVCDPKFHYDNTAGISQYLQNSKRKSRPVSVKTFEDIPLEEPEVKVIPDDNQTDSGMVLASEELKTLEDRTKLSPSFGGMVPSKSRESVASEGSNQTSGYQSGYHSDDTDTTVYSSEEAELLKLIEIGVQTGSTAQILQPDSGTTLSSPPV

With `C=CC(=O)Nc1cccc(C(=O)Nc2ccc(Nc3cc(-c4[nH]c(SC)nc4C)ccn3)cc2)c1`, the % of control in experiment [1] (at 1 µM) amounted to 84%; in experiment [1] (at 5 µM) it was 81%.
Compound `CN(C)C/C=C/C(=O)Nc1ccc(C(=O)N2CCCC(Nc3ncc(Cl)c(-c4c[nH]c5ccccc45)n3)C2)cc1` (stereo not given) displayed a % of control in experiment [2] of 95%.
On to `Nc1cnc(N2CCc3cc(S(=O)(=O)Nc4c(F)cc(Cl)cc4F)cc(N4CCCC4=O)c32)nc1` [TP-020n], for which the % of control in experiment [3] was found to be 100%.
Turning to `Cn1cc(Nc2nccc(N3CC4CCC(C3)N4C(=O)[C@@H]3CC3(F)F)n2)cn1`, the IC50 in experiment [4] was determined as 1.6 µM.

As usually defined, the IC50 is the concentration that gives 50% inhibition.
